Structures can show the parent of a compound that is named as a salt.
Columns and labels:
[1] = molecular target: 5-hydroxytryptamine receptor 5A (Homo sapiens, UniProt P47898); test: (§1) PDSP Secondary Binding target: HTR5A - Compounds are tested at 10 uM concentration, plate are incubated at room temperature in the dark for 90 minutes. Reaction are stopped by vacuum filtration onto 0.3% polyethyleneimine soaked filter mats using Filtermate harvester. Scintillation cocktail is then melted onto microwave-dried filters on a hot plate and the radio activity is counted in Microbia counter.
Chain of 5-hydroxytryptamine receptor 5A (P47898 whole entry): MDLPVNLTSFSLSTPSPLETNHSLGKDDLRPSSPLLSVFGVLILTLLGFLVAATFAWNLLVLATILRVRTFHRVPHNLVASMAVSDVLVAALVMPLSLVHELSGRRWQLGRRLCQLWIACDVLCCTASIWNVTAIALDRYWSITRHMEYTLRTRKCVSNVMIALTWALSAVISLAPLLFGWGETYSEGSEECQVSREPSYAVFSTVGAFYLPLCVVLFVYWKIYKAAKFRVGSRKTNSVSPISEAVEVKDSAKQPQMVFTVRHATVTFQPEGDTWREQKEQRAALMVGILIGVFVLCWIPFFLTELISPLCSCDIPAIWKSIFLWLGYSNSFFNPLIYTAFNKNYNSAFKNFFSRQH

[2] = molecular target: T1, Muscarinic acetylcholine receptor M4 (Homo sapiens, UniProt P08173); test: as §1, with “CHRM4” for “HTR5A”
T1 sequence (P08173 whole entry): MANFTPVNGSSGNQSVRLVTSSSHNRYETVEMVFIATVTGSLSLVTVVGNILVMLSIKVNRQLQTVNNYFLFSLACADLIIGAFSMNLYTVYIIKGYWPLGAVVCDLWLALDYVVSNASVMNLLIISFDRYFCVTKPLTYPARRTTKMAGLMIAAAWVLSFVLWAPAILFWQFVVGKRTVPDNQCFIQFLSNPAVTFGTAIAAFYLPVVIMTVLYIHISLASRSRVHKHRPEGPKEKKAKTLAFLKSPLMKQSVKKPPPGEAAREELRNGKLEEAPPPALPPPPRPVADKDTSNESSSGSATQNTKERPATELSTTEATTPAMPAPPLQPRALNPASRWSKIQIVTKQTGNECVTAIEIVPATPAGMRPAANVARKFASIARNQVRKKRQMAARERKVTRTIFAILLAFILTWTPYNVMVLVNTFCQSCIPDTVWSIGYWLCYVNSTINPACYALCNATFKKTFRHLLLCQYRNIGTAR

D(4) dopamine receptor = molecular target: T2, D(4) dopamine receptor (Homo sapiens, UniProt P21917); test: as §1, with “DRD4” for “HTR5A”
T2 sequence (P21917 whole entry): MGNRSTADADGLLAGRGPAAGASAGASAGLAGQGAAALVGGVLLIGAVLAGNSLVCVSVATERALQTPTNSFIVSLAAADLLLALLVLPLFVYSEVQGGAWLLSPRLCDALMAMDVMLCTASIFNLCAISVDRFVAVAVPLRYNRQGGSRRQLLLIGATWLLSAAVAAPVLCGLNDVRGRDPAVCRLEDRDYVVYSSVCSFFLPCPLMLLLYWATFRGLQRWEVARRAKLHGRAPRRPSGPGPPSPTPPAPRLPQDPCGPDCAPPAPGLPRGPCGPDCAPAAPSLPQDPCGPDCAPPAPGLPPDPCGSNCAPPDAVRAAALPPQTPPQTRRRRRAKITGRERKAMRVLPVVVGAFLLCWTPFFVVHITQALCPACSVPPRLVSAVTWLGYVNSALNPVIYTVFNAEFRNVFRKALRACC

[3] = molecular target: T3, 5-hydroxytryptamine receptor 2C (Homo sapiens, UniProt P28335); test: as §1, with “HTR2C” for “HTR5A”
T3 sequence (P28335 whole entry): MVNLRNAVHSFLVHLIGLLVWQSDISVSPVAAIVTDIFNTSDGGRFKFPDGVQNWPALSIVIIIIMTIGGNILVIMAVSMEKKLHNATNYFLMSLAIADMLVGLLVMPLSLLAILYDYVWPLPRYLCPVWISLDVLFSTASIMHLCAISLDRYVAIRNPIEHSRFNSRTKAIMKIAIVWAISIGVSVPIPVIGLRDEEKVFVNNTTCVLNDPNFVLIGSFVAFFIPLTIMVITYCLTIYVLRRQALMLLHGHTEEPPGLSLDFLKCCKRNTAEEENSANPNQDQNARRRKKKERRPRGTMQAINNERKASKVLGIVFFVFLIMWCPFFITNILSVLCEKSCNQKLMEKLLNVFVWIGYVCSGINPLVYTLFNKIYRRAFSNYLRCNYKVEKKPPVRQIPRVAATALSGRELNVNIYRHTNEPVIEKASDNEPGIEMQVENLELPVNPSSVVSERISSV

[4] = molecular target: 5-hydroxytryptamine receptor 6 (Homo sapiens, UniProt P50406); test: as §1, with “HTR6” for “HTR5A”
Chain of 5-hydroxytryptamine receptor 6 (P50406 whole entry): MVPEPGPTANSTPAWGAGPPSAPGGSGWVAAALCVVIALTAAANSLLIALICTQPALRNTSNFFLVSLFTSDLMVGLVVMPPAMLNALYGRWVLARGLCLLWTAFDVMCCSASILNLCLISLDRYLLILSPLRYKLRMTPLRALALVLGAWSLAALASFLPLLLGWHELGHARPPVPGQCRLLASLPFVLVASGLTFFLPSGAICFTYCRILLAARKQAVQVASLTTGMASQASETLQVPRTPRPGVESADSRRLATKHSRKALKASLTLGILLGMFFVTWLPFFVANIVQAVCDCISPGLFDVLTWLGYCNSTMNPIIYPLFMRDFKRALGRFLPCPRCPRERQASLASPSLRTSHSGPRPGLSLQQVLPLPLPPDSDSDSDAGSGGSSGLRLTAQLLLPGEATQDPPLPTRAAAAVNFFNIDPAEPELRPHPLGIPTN

[5] = molecular target: Sodium-dependent noradrenaline transporter (Homo sapiens, UniProt P23975); test: as §1, with “SLC6A2” for “HTR5A”
Chain of Sodium-dependent noradrenaline transporter (P23975 whole entry): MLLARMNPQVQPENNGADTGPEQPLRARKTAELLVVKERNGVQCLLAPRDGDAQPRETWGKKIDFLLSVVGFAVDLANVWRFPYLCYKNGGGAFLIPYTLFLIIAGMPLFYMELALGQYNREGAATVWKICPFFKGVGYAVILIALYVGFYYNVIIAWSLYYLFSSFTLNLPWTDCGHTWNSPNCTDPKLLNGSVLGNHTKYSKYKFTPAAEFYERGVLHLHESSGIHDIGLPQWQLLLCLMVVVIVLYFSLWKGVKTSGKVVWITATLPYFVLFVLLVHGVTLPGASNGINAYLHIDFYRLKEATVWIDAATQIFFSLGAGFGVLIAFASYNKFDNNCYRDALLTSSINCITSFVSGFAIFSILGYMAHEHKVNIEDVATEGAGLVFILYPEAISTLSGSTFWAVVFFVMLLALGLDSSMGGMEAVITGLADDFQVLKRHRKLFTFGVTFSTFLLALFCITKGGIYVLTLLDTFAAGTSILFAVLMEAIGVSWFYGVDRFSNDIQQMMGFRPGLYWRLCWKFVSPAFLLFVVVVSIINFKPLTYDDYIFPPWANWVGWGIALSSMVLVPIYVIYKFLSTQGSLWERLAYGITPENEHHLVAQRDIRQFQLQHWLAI

[6] = molecular target: Sigma intracellular receptor 2 (Homo sapiens, UniProt Q5BJF2); test: as §1, with “TMEM97” for “HTR5A”
Chain of Sigma intracellular receptor 2 (Q5BJF2 whole entry): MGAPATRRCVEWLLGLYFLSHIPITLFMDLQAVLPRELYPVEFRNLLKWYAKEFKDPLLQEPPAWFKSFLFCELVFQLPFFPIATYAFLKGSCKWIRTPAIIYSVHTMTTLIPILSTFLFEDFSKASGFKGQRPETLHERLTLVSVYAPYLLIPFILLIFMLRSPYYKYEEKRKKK

[7] = molecular target: 5-hydroxytryptamine receptor 1D (Homo sapiens, UniProt P28221); test: as §1, with “HTR1D” for “HTR5A”
Chain of 5-hydroxytryptamine receptor 1D (P28221 whole entry): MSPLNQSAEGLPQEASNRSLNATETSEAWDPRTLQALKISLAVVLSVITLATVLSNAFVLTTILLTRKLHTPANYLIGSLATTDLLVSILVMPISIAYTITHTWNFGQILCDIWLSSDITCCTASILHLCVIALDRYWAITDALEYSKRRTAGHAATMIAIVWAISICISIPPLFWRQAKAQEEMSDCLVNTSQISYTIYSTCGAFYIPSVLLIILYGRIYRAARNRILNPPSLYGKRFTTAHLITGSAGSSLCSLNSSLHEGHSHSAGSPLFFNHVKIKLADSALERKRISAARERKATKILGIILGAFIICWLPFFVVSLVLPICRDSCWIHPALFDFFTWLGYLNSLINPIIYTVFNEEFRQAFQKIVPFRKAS

Translocator protein = Translocator protein (Homo sapiens, UniProt P30536); test: as §1, with “TSPO” for “HTR5A”
Chain of Translocator protein (P30536 whole entry): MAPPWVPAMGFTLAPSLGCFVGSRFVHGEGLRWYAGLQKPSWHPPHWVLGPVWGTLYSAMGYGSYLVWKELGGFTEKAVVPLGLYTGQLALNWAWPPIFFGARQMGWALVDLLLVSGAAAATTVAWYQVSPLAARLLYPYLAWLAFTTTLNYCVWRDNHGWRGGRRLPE

Histamine H1 receptor = Histamine H1 receptor (Homo sapiens, UniProt P35367); test: as §1, with “HRH1” for “HTR5A”
Chain of Histamine H1 receptor (P35367 whole entry): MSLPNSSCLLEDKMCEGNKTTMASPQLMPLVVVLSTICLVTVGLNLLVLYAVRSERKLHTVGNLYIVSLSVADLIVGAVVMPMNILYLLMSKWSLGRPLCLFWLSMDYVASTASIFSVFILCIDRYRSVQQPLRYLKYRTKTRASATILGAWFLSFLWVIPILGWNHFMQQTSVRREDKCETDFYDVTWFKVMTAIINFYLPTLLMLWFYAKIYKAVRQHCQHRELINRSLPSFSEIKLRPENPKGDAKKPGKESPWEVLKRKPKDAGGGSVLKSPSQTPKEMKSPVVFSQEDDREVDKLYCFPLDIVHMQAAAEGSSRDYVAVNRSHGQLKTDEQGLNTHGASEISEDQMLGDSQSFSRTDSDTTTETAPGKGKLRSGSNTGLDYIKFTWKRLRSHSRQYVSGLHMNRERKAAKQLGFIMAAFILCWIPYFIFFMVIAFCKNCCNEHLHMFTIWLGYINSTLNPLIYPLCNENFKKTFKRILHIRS

[8] = molecular target: Sigma non-opioid intracellular receptor 1 (Homo sapiens, UniProt Q99720); test: as §1, with “SIGMAR1” for “HTR5A”
Chain of Sigma non-opioid intracellular receptor 1 (Q99720 whole entry): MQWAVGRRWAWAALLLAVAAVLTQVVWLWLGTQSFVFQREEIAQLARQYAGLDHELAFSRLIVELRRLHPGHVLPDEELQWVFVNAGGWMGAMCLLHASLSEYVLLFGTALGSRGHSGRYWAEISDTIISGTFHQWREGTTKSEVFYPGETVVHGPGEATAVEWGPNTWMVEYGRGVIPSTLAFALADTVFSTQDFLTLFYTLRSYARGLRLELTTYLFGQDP

[9] = molecular target: T4, Muscarinic acetylcholine receptor M5 (Homo sapiens, UniProt P08912); test: as §1, with “CHRM5” for “HTR5A”
T4 sequence (P08912 whole entry): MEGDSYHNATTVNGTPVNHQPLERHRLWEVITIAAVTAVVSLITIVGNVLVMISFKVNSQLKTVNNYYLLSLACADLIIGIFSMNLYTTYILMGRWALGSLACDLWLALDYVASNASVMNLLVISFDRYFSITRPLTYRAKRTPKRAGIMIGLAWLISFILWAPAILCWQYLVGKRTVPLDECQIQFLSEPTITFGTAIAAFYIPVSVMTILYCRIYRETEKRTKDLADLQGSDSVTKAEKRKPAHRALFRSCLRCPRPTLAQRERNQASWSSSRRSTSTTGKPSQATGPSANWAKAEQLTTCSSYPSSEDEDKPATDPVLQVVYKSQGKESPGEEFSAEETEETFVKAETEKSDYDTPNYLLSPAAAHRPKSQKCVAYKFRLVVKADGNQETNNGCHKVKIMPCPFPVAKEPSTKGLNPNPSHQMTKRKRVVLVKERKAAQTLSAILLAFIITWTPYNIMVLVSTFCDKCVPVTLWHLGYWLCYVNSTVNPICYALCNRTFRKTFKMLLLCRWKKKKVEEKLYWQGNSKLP

[10] = molecular target: T5, Muscarinic acetylcholine receptor M1 (Homo sapiens, UniProt P11229); test: as §1, with “CHRM1” for “HTR5A”
T5 sequence (P11229 whole entry): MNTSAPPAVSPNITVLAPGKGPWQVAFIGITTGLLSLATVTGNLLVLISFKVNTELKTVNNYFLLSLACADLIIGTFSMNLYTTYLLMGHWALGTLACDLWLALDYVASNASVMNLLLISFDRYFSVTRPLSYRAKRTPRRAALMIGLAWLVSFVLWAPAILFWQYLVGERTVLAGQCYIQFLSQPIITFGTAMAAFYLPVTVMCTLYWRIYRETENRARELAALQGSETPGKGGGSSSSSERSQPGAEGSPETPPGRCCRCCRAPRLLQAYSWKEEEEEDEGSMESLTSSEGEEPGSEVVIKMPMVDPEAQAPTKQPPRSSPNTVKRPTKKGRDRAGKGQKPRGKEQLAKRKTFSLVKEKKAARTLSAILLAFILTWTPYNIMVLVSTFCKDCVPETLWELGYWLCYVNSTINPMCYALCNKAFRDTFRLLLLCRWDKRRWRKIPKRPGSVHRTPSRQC

[11] = molecular target: T6, 5-hydroxytryptamine receptor 3A (Homo sapiens, UniProt P46098); test: as §1, with “HTR3A” for “HTR5A”
T6 sequence (P46098 whole entry): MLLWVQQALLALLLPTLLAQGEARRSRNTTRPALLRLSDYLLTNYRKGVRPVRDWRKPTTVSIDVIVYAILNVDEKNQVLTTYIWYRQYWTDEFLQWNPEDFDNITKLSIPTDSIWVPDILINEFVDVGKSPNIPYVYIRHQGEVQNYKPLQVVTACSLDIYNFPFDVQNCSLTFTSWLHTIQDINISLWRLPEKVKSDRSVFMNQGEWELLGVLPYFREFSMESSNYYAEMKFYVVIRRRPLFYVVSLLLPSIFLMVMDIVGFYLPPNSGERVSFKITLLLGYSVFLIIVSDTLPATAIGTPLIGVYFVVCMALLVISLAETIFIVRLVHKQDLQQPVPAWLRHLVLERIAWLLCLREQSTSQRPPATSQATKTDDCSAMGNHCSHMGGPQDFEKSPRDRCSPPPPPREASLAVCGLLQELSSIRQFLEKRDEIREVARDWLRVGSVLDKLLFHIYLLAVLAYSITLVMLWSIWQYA

Mu-type opioid receptor = Mu-type opioid receptor (Homo sapiens, UniProt P35372); test: as §1, with “OPRM1” for “HTR5A”
Chain of Mu-type opioid receptor (P35372 whole entry): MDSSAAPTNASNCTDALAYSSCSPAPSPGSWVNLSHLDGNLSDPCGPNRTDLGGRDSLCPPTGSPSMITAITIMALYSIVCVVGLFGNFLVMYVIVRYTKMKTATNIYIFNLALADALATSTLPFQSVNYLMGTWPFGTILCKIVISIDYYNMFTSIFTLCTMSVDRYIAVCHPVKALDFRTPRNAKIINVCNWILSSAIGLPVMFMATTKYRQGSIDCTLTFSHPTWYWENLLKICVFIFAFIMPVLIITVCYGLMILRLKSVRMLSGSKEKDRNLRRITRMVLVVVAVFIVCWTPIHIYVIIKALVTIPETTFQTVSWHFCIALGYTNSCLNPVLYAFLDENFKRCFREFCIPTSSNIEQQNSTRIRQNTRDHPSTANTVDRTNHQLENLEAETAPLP

[12] = molecular target: 5-hydroxytryptamine receptor 7 (Homo sapiens, UniProt P34969); test: as §1, with “HTR7” for “HTR5A”
Chain of 5-hydroxytryptamine receptor 7 (P34969 whole entry): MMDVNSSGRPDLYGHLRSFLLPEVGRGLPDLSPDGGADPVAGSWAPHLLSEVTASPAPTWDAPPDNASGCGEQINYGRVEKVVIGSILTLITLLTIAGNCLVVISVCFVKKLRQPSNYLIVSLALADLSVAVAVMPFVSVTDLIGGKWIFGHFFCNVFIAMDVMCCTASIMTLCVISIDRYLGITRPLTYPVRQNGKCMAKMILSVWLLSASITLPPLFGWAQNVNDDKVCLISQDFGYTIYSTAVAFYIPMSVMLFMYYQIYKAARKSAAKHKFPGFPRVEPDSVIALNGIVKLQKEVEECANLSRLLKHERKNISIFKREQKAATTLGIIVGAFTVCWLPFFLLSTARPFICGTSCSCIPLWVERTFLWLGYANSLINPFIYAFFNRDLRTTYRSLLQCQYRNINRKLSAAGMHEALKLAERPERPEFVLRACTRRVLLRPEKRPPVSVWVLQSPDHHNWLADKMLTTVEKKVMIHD

| Ki [8] [µM] | Ki [11] [µM] | Ki (Mu-type opioid receptor) [µM] | Ki [12] [µM] | SMILES | Ki [1] [µM] | Ki [2] [µM] | Ki (D(4) dopamine receptor) [µM] | Ki [3] [µM] | Ki [4] [µM] | Ki [5] [µM] | Ki [6] [µM] | Ki [7] [µM] | Ki (Translocator protein) [µM] | Ki (Histamine H1 receptor) [µM] | Ki [9] [µM] | Ki [10] [µM] |
| --- | --- | --- | --- | --- | --- | --- | --- | --- | --- | --- | --- | --- | --- | --- | --- | --- |
| – | – | – | – | CC(C)[C@H](CO)Nc1nc(Nc2cccc(Cl)c2)c2ncn(C(C)C)c2n1 [PURVALANOLA] | 7.54 | > 10 | 4.87 | 3.04 | 2.27 | 4.4 | 1.13 | 3.8 | 1.52 | – | – | – |
| 2 | 0.36 | 7.72 | – | CCc1nn2c(C)cc(C)nc2c1Cc1ccc(-c2nnc(C3CCNCC3)o2)cc1 | – | – | – | – | – | – | 0.489 | – | – | – | – | – |
| 0.000904 | – | – | 1.1 | Clc1ccc(CCCOCCCN2CCCCC2)cc1 [PITOLISANT HYDROCHLORIDE] | – | 0.899 | – | 1.99 | – | 1.92 | 0.00701 | – | – | 1.2 | – | – |
| – | – | – | – | C[N+]1(C)[C@@H]2C[C@@H](OC(=O)C(O)(c3cccs3)c3cccs3)C[C@H]1[C@@H]1O[C@@H]12 [TIOTROPIUM BROMIDE] | – | 0.0006 | – | – | – | – | 2.06 | – | 4.29 | – | 0.00122 | – |

| SMILES | Ki [8] [µM] | Ki [11] [µM] | Ki (Mu-type opioid receptor) [µM] | Ki [12] [µM] | Ki [1] [µM] | Ki [2] [µM] | Ki (D(4) dopamine receptor) [µM] | Ki [3] [µM] | Ki [4] [µM] | Ki [5] [µM] | Ki [6] [µM] | Ki [7] [µM] | Ki (Translocator protein) [µM] | Ki (Histamine H1 receptor) [µM] | Ki [9] [µM] | Ki [10] [µM] |
| --- | --- | --- | --- | --- | --- | --- | --- | --- | --- | --- | --- | --- | --- | --- | --- | --- |
| Cc1ccc(O)c([C@H](CCN(C(C)C)C(C)C)c2ccccc2)c1 [TOLTERODINE TARTRATE] | 0.216 | – | – | – | – | – | – | – | – | – | 0.167 | – | – | 0.127 | 0.00386 | 0.00869 |
